The source of these data is PubChem BioAssay AID2060507 (Molecular Pharmacology Branch, DTP, NCI, 2025).

Each structure is given as a SMILES string. pIC50: −log10 of the molar value. “And” between values parts separate entries of the source, which are not always exact repeats. Equal entries are not always repeated. Where only a bound is given, the exact number is not on record here.

The assay has as its system 519858-162-T-J1-PDC complex spheroid viability. Kind of assay: Anticancer human tumor 519858-162-T-J1-PDC patient-derived colon adenocarcinoma cell line growth inhibition [GQUAD]. The following applies: for viability, T/C: stronger effect = lower value. A digest of the protocol: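 Viability of tumor cells grown as complex spheroids with endothelial and stromal cells, exposed to drug combinations. Top concentration at or near clinical Cmax (else 10 microM), diluted in half-log increments.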

The mark [1] stands for this setting: curve of first compound, second compound 0.0316 µM.
Where [2] appears, read: curve of first compound, second compound 0.1 µM.
[3] abbreviates: curve of first compound, second compound 0.316 µM.
The mark [4] stands for this setting: curve of first compound, second compound 1 µM.
Setting [5] is: curve of first compound, second compound 3.16 µM.
Setting [6] is: curve of first compound, second compound 10 µM.
The mark [7] stands for this setting: second compound 0.0316 µM, first compound 0.0316 µM.
The mark [8] stands for this setting: second compound 0.0316 µM, first compound 0.316 µM.
Where [9] appears, read: second compound 0.1 µM, first compound 0.0316 µM.
The mark [10] stands for this setting: second compound 0.1 µM, first compound 0.316 µM.
Where [11] appears, read: second compound 0.316 µM, first compound 0.0316 µM.
[12] abbreviates: second compound 0.316 µM, first compound 0.316 µM.
Setting [13] is: second compound 1 µM, first compound 0.0316 µM.
[14] abbreviates: second compound 1 µM, first compound 0.316 µM.
Where [15] appears, read: second compound 3.16 µM, first compound 0.0316 µM.
The mark [16] stands for this setting: second compound 3.16 µM, first compound 0.316 µM.
Setting [17] is: second compound 10 µM, first compound 0.0316 µM.
The mark [18] stands for this setting: second compound 10 µM, first compound 0.316 µM.
[19] abbreviates: compound alone, run of 02/26/2024.

Usually pIC50 stands for −log10 of the IC50, conventionally taken in molar units. What is called viability, T/C is the ratio of treated to control.
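Throughout, for viability, T/C: 100% = DMSO vehicle control viability.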

Consider `Cn1ncnc1[C@H]1c2n[nH]c(=O)c3cc(F)cc(c23)N[C@@H]1c1ccc(F)cc1` + CN(C)c1ccc(Nc2c3ccc(NC(=O)CCN4CCCC4)cc3nc3cc(NC(=O)CCN4CCCC4)ccc23)cc1, for which the pIC50 under setting [1] is under 6.50; the negative-log IC50 (pIC50) under setting [2] was under 6.50; the pIC50 under setting [3] was under 6.50; the pIC50 under setting [4] is under 6.50; the negative-log IC50 (pIC50) under setting [5] was under 6.50; the pIC50 under setting [6] is under 6.50. Also, the viability, T/C by setting is: (second compound 0.0316 µM, first compound 0.000999 µM) 74.5%; (second compound 0.0316 µM, first compound 0.00316 µM) 119%; (second compound 0.0316 µM, first compound 0.00999 µM) 146%; under setting [7], 66.9%; (second compound 0.0316 µM, first compound 0.0999 µM) 79.6%; under setting [8], 118%. Moreover, the viability, T/C (second compound 0.1 µM, first compound 0.000999 µM) is 96%; the viability, T/C (second compound 0.1 µM, first compound 0.00316 µM) is 109%; the viability, T/C (second compound 0.1 µM, first compound 0.00999 µM) was 79%; the viability, T/C under setting [9] is 103%; the viability, T/C (second compound 0.1 µM, first compound 0.0999 µM) is 104%; the viability, T/C under setting [10] is 105%. The viability, T/C by setting is: (second compound 0.316 µM, first compound 0.000999 µM) 94.4%; (second compound 0.316 µM, first compound 0.00316 µM) 139%; (second compound 0.316 µM, first compound 0.00999 µM) 99.1%; under setting [11], 84.6%; (second compound 0.316 µM, first compound 0.0999 µM) 83%; under setting [12], 109%. The viability, T/C (second compound 1 µM, first compound 0.000999 µM) was 75.3%; the viability, T/C (second compound 1 µM, first compound 0.00316 µM) was 68.4%; the viability, T/C (second compound 1 µM, first compound 0.00999 µM) is 82.2%; the viability, T/C under setting [13] is 63.5%; the viability, T/C (second compound 1 µM, first compound 0.0999 µM) was 88.9%; the viability, T/C under setting [14] is 119%. The viability, T/C by setting is: (second compound 3.16 µM, first compound 0.000999 µM) 104%; (second compound 3.16 µM, first compound 0.00316 µM) 97.8%; (second compound 3.16 µM, first compound 0.00999 µM) 78.6%; under setting [15], 63.2%; (second compound 3.16 µM, first compound 0.0999 µM) 54.8%; under setting [16], 91.9%. Besides, the viability, T/C was 89.9% (second compound 10 µM, first compound 0.000999 µM); 57.5% (second compound 10 µM, first compound 0.00316 µM); 82.4% (second compound 10 µM, first compound 0.00999 µM); 79.6% under setting [17]; 67.5% (second compound 10 µM, first compound 0.0999 µM); 65.7% under setting [18].
As for `C=CCn1c(=O)c2cnc(Nc3ccc(N4CCN(C)CC4)cc3)nc2n1-c1cccc(C(C)(C)O)n1`, the viability, T/C was 83% and 81.4% (compound 0.0316 µM); 107% and 106% (compound 0.1 µM); 126% and 105% (compound 0.316 µM); 104% and 95.3% (compound 1 µM); 83.3% and 94.8% (compound 3.16 µM); 92.4% and 92.1% (compound 10 µM). In addition, for the setting “curve of compound”, the pIC50 was under 5.00.
With `CN(C)c1ccc(Nc2c3ccc(NC(=O)CCN4CCCC4)cc3nc3cc(NC(=O)CCN4CCCC4)ccc23)cc1`, the viability, T/C was 85.1% [middle of 7 runs] (compound 0.0316 µM) and 67.7% [middle of 7 runs] (compound 10 µM). Besides, under setting [19], the pIC50 was under 5.00.
With `Cc1[nH]c2ccc(F)cc2c1-c1nc2c3cccnc3c3ncccc3c2[nH]1`, the viability, T/C was 87.9% [middle of 9 runs] (compound 0.1 µM) and 92.2% [middle of 9 runs] (compound 0.316 µM). The pIC50 reads like this: (compound alone, run of 02/20/2024) 5.05 and < 5.00 and 5.03; under setting [19], under 5.00.
For `CC1COCCN1c1cc(C2(S(C)(=N)=O)CC2)nc(-c2ccnc3[nH]ccc23)n1` (configuration not stated), the viability, T/C is, setting by setting: (compound 0.0316 µM) 118% and 109% and 93.2%; (compound 0.1 µM) 80.8% and 90.4% and 89.4%; (compound 0.316 µM) 80.8% and 111% and 79%; (compound 1 µM) 115% and 98.5% and 105%; (compound 3.16 µM) 51.5% and 98.4% and 90.3%; (compound 10 µM) 61.3% and 105% and 86.2%. Besides, for the setting “curve of compound”, the pIC50 was under 5.00.
On to `Cc1[nH]c2ccccc2c1CCNCc1ccc(/C=C/C(=O)NO)cc1`, for which the viability, T/C reads like this: (compound 0.000999 µM) 94.4%; (compound 0.00316 µM) 108%; (compound 0.00999 µM) 74.3%; (compound 0.0316 µM) 107%; (compound 0.0999 µM) 75.5%; (compound 0.316 µM) 50.6%. The pIC50 (curve of compound) was under 6.50.
In the case of `C#Cc1c(F)ccc2cc(O)cc(-c3ncc4c(N5CC6CCC(C5)N6)nc(OCC56CCCN5CC(F)C6)nc4c3F)c12` (configuration not stated) + Cc1cnc(CNC(=O)c2c(=O)c3ccc(N4CCCN(C)CC4)nc3n3c2sc2ccccc23)cn1, the pIC50 under setting [1] was under 5.00; the negative logarithm of the IC50 (pIC50) under setting [2] was under 5.00; the pIC50 under setting [3] was 5.02; the negative-log IC50 (pIC50) under setting [4] was 5.44; the pIC50 under setting [5] is 5.90; the pIC50 under setting [6] was over 7.50. For the same molecule, the viability, T/C is, setting by setting: under setting [7], 71.2%; (second compound 0.0316 µM, first compound 0.1 µM) 81.3%; under setting [8], 83.4%; (second compound 0.0316 µM, first compound 1 µM) 104%; (second compound 0.0316 µM, first compound 3.16 µM) 78.2%; (second compound 0.0316 µM, first compound 10 µM) 73.9%. For the same molecule, the viability, T/C by setting is: under setting [9], 78.8%; (second compound 0.1 µM, first compound 0.1 µM) 89%; under setting [10], 61.9%; (second compound 0.1 µM, first compound 1 µM) 84.2%; (second compound 0.1 µM, first compound 3.16 µM) 70.7%; (second compound 0.1 µM, first compound 10 µM) 92%. For the same molecule, the viability, T/C was 65% under setting [11]; 88% (second compound 0.316 µM, first compound 0.1 µM); 73.3% under setting [12]; 66.6% (second compound 0.316 µM, first compound 1 µM); 83.1% (second compound 0.316 µM, first compound 3.16 µM); 49.2% (second compound 0.316 µM, first compound 10 µM). Also, the viability, T/C is, setting by setting: under setting [13], 70.1%; (second compound 1 µM, first compound 0.1 µM) 56.7%; under setting [14], 63.5%; (second compound 1 µM, first compound 1 µM) 55.9%; (second compound 1 µM, first compound 3.16 µM) 48.8%; (second compound 1 µM, first compound 10 µM) 46.4%. Further, the viability, T/C is, setting by setting: under setting [15], 46.6%; (second compound 3.16 µM, first compound 0.1 µM) 63.5%; under setting [16], 53.4%; (second compound 3.16 µM, first compound 1 µM) 53.1%; (second compound 3.16 µM, first compound 3.16 µM) 34.5%; (second compound 3.16 µM, first compound 10 µM) 42%. Moreover, the viability, T/C by setting is: under setting [17], 32.5%; (second compound 10 µM, first compound 0.1 µM) 55.2%; under setting [18], 48.4%; (second compound 10 µM, first compound 1 µM) 53.4%; (second compound 10 µM, first compound 3.16 µM) 52.4%; (second compound 10 µM, first compound 10 µM) 41.7%.
